Where a name gives a salt, the structure may show the parent alone.
What was measured:
M. Smegmatis ATCC607 = experiment: In-vitro anti-bacterial activity against strain M. smegmatis ATCC607 (growth inhibition, Alamar Blue fluorescence); type: cell-based; conditions: 48 hours at 37° C.; for IC50: Mycolicibacterium smegmatis, read-out: M. smegmatis (pIC50) (converted)
Description: D.2. In-vitro Method for Testing Compounds for Anti-bacterial Activity Against Strain M. Smegmatis ATCC607. Flat-bottom, sterile 96well plastic microtiter plates were filled with 180 μl of sterile deionized water, supplemented with 0.25% BSA. Subsequently, stock solutions (7.8× final test concentration) of compounds were added in 45 μl volumes to a series of duplicate wells in column 2 so as to allow evaluation of their effects on bacterial growth. Serial five-fold dilutions (45 μl in 180 μl) were made directly in the microtiter plates from column 2 to 11 using a customised robot system (Zymark Corp., Hopkinton, Mass.). Pipette tips were changed after every 3 dilutions to minimize pipetting errors with high hydrophobic compounds. Untreated control samples with (column 1) and without (column 12) inoculum were included in each microtiter plate. Approximately 250 CFU per well of bacteria inoculum, in a volume of 100 μl in 2.8× Mueller-Hinton broth medium, was added to the rows […]. The same volume of broth medium without inoculum was added to column 12 in row A to H. The cultures were incubated at 37° C. for 48 hours in a humidified 5% CO2 atmosphere (incubator with open air valve and continuous ventilation). At the end of incubation, two days after inoculation, the bacterial growth was quantitated fluorometrically. Therefore Alamar Blue (10×) was added to all wells in a volume of 20 μl and plates were incubated for another 2 hours at […] The fluorescence was read in a computer-controlled fluorometer (Cytofluor, Biosearch) at an excitation wavelength of 530 nm and an emission wavelength of 590 nm (gain 30). The % growth inhibition achieved by the compounds was calculated according to standard methods. The pIC50 was defined as the 50% inhibitory concentration for bacterial growth.

[1] = test system: Mycobacterium tuberculosis (strain H37RV); experiment: In-vitro testing of compounds against M. tuberculosis (growth inhibition, Resazurin fluorescence); type: cell-based; conditions: bacterial growth inhibition, 7 days at 37° C.; for IC50: Mycobacterium tuberculosis, 168 h, read-out: M. tuberculosis (pIC50) (converted)

Q: Which melting point does the source give for `CN(C)CCC(O)(c1cccc2ccccc12)c1cc(Br)cc2cc(-c3ccccc3)c(=O)[nH]c12` (stereo not drawn) here?
A: 190 °C

Q: For `CN(C)CCC(O)(c1cc(F)cc(F)c1)c1ccc2nc(-c3cccnc3)cc(-c3ccccc3)c2c1` (stereo not drawn) (as salt: salt) [Compound 8], which melting point is on record?
A: 151 °C

Q: With `CN(C)CCC(O)(c1cc(F)cc(F)c1)c1cccc2nc(N(C)C)c(-c3ccccc3)cc12` (stereo not drawn) (as salt: salt) [Compound 10] as the molecule, how does the melting point read?
A: 136 °C

Q: With `COc1nc2c(C(O)(CCN(C)C)c3cc(F)cc(F)c3)cc(-c3cccnc3)cc2cc1-c1ccccc1` (stereo not drawn) (as salt: salt) [Compound 13] as the molecule, how does the melting point read?
A: 156 °C

Q: With `COc1nc2c(C(O)(CCN(C)C)c3ccccc3)cc(Br)cc2cc1Cc1ccccc1` (stereo not drawn) [Compound 3] as the molecule, how does the IC50 (M. Smegmatis ATCC607) read?
A: 1260 nM

Q: What about the melting point of the same molecule?
A: 66 °C

Q: Which IC50 (M. Smegmatis ATCC607) does the source give for `CN(C)CCC(O)(Cc1c(Cc2ccccc2)c(-c2ccco2)nc2ccccc12)c1cc(F)cc(F)c1` (stereo not drawn) [Compound 5] here?
A: 398 nM

Q: And the melting point?
A: 130 °C

Q: Which IC50 (M. Smegmatis ATCC607) does the source give for `CN(C)CCC(O)(c1ccccc1)c1cc(Br)cc2cc(Cc3ccccc3)c(N3CCOCC3)nc12` (stereo not drawn) [Compound 7] here?
A: 1580 nM

Q: And the melting point?
A: 70 °C

Q: What does the source list for `CN(C)CCC(O)(Cc1c(Cc2ccccc2)c(-c2cccnc2)nc2ccccc12)c1cc(F)cc(F)c1` (stereo not drawn) [Compound 9]?
A: IC50 (M. Smegmatis ATCC607): 6310 nM; melting point: 164 °C

Q: Which results are given for `CN(C)CCC(O)(c1ccccc1)c1cc(Br)cc2cc(Cc3ccccc3)c(OCCN3CCCCC3)nc12` (stereo not drawn) [Compound 11]?
A: IC50 (M. Smegmatis ATCC607): 3160 nM; IC50 [1]: 3160 nM

Q: Which IC50 (M. Smegmatis ATCC607) does the source give for `COc1nc2c(C(O)(CCN(C)C)c3ccccc3)cc(-c3cccnc3)cc2cc1Cc1ccccc1` (stereo not drawn) [Compound 14] here?
A: 7940 nM

Q: What about the melting point of the same molecule?
A: 180 °C

Q: For `CN(C)CCOc1nc2c(C(O)(CCN(C)C)c3ccccc3)cc(Br)cc2cc1Cc1ccccc1` (stereo not drawn) [Compound 75], which IC50 (M. Smegmatis ATCC607) is on record?
A: 6310 nM

Q: And the IC50 [1]?
A: 5010 nM

Q: What does the source list for `CN(C)CCC(O)(c1ccccc1)c1cc(Br)cc2cc(Cc3ccccc3)c(N3CCN(Cc4ccccc4)CC3)nc12` (stereo not drawn) [Compound 79]?
A: M. smegmatis (pIC50) (M. Smegmatis ATCC607): 6.2; M. tuberculosis (pIC50) [1]: 4.6

Q: For `CN(C)CCC(O)(c1ccccc1)c1cc(Br)cc2cc(Cc3ccccc3)c(N3CCCC3)nc12` (stereo not drawn) [Compound 80], which “M. smegmatis (pIC50)” value (M. Smegmatis ATCC607) is on record?
A: 6.1

Q: And the “M. tuberculosis (pIC50)” value [1]?
A: 5.05

Q: With `CN(C)CCC(O)(c1ccccc1)c1cc(Br)cc2cc(Cc3ccccc3)c(N3CCC(Cc4ccccc4)CC3)nc12` (stereo not drawn) [Compound 84] as the molecule, how does the IC50 (M. Smegmatis ATCC607) read?
A: 2000 nM

Q: Which “M. smegmatis (pIC50)” value (M. Smegmatis ATCC607) does the source give for `CN(C)CCC(O)(c1ccccc1)c1cc(Br)cc2cc(Cc3ccccc3)c(N3CCN(c4ccccn4)CC3)nc12` (stereo not drawn) [Compound 85] here?
A: 5.7

Q: Which “M. smegmatis (pIC50)” value (M. Smegmatis ATCC607) does the source give for `CN(C)CCC(O)(c1ccccc1)c1cc(Br)cc2cc(Cc3ccccc3)c(N3CCN(C(=O)c4ccco4)CC3)nc12` (stereo not drawn) [Compound 86] here?
A: 5.7

Q: Which IC50 (M. Smegmatis ATCC607) does the source give for `CN(C)CCC(O)(c1ccccc1)c1cc(Br)cc2cc(Cc3ccccc3)c(NCCCN3CCOCC3)nc12` (stereo not drawn) [Compound 87] here?
A: 2510 nM

Q: Which IC50 (M. Smegmatis ATCC607) does the source give for `CN(C)CCC(O)(c1ccccc1)c1cc(Br)cc2cc(Cc3ccccc3)c(NCCC(c3ccccc3)c3ccccc3)nc12` (stereo not drawn) [Compound 88] here?
A: 2510 nM

Q: Which IC50 (M. Smegmatis ATCC607) does the source give for `CN(C)CCC(O)(c1ccccc1)c1cc(Br)cc2cc(Cc3ccccc3)c(N3CCN(c4ncccn4)CC3)nc12` (stereo not drawn) [Compound 89] here?
A: 2510 nM

Q: Which “M. smegmatis (pIC50)” value (M. Smegmatis ATCC607) does the source give for `COCCCNc1nc2c(C(O)(CCN(C)C)c3ccccc3)cc(Br)cc2cc1Cc1ccccc1` (stereo not drawn) [Compound 90] here?
A: 5.5

Q: For `CC1CCN(c2nc3c(C(O)(CCN(C)C)c4ccccc4)cc(Br)cc3cc2Cc2ccccc2)CC1` (stereo not drawn) [Compound 91], which “M. smegmatis (pIC50)” value (M. Smegmatis ATCC607) is on record?
A: 5.3

Q: With `CN(C)CCC(O)(c1ccccc1)c1cc(Br)cc2cc(Cc3ccccc3)c(NCCCN3CCCC3=O)nc12` (stereo not drawn) [Compound 92] as the molecule, how does the “M. smegmatis (pIC50)” value (M. Smegmatis ATCC607) read?
A: 5.2

Q: With `CCCCNc1nc2c(C(O)(CCN(C)C)c3ccccc3)cc(Br)cc2cc1Cc1ccccc1` (stereo not drawn) [Compound 93] as the molecule, how does the “M. smegmatis (pIC50)” value (M. Smegmatis ATCC607) read?
A: 5.1

Q: With `CN(C)CCC(O)(c1ccccc1)c1cc(Br)cc2cc(Cc3ccccc3)c(N3CCC(C(N)=O)CC3)nc12` (stereo not drawn) [Compound 94] as the molecule, how does the IC50 (M. Smegmatis ATCC607) read?
A: 7940 nM
